Results as given in ChEMBL document CHEMBL1150976, “The selectivity of protein kinase inhibitors: a further update” (Biochem J, 2007).

Tests used:
[1] = target: Protein kinase C alpha type (Homo sapiens) (UniProt P17252); assay: Percentage PKCalpha activity remaining in the presence of 0.01uM inhibitor
[2] = target: Ribosomal protein S6 kinase alpha-5 (Homo sapiens) (UniProt O75582); assay: Percentage MSK1 activity remaining in the presence of 0.01uM inhibitor
[3] = target: Mitogen-activated protein kinase 10 (Homo sapiens) (UniProt P53779); assay: Percentage JNK3 activity remaining in the presence of 0.01uM inhibitor
[4] = target: T1, Aurora kinase C (Homo sapiens) (UniProt Q9UQB9); assay: Percentage Aurora C activity remaining in the presence of 0.01uM inhibitor
T1 sequence (whole entry): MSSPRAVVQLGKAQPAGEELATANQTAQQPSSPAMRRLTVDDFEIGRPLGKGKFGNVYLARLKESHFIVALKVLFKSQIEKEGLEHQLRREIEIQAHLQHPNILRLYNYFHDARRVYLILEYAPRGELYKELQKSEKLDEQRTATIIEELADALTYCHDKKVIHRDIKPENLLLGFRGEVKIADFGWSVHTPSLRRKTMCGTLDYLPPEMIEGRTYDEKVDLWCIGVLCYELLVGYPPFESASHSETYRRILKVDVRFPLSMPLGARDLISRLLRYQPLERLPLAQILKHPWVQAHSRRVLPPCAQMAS

[5] = target: Mitogen-activated protein kinase 9 (Homo sapiens, UniProt P45984); assay: Percentage JNK2 activity remaining in the presence of 0.01uM inhibitor
[6] = target: Dual specificity tyrosine-phosphorylation-regulated kinase 1A (Homo sapiens) (UniProt Q13627); assay: Percentage DYRK1A activity remaining in the presence of 0.01uM inhibitor
[7] = target: T2, Serine/threonine-protein kinase BRSK2 (Homo sapiens) (UniProt Q8IWQ3); assay: Percentage BRSK2 activity remaining in the presence of 0.01uM inhibitor
T2 sequence (whole entry): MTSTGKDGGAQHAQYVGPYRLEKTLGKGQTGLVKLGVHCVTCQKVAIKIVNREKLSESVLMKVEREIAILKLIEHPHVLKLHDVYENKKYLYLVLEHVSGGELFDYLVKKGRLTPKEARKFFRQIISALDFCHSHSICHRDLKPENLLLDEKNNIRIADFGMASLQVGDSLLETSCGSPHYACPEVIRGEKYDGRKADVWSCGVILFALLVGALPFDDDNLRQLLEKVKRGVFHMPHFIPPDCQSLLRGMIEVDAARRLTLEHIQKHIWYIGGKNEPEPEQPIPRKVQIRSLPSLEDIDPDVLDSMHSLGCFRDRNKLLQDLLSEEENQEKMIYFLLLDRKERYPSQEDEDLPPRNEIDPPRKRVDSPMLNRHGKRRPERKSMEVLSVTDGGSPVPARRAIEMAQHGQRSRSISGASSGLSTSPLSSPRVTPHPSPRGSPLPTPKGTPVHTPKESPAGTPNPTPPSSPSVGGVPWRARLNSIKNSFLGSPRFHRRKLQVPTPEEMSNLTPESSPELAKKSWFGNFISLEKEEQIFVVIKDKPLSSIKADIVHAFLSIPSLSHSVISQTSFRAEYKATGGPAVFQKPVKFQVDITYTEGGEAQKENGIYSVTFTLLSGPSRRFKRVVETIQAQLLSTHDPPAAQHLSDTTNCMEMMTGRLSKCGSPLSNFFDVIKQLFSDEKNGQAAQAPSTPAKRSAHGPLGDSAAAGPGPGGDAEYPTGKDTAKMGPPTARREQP

[8] = target: Homeodomain-interacting protein kinase 2 (Homo sapiens) (UniProt Q9H2X6); assay: Percentage HIPK2 activity remaining in the presence of 0.01uM inhibitor
[9] = target: T3, Dual specificity tyrosine-phosphorylation-regulated kinase 3 (Homo sapiens) (UniProt O43781); assay: Percentage DYRK3 activity remaining in the presence of 0.01uM inhibitor
T3 sequence (whole entry): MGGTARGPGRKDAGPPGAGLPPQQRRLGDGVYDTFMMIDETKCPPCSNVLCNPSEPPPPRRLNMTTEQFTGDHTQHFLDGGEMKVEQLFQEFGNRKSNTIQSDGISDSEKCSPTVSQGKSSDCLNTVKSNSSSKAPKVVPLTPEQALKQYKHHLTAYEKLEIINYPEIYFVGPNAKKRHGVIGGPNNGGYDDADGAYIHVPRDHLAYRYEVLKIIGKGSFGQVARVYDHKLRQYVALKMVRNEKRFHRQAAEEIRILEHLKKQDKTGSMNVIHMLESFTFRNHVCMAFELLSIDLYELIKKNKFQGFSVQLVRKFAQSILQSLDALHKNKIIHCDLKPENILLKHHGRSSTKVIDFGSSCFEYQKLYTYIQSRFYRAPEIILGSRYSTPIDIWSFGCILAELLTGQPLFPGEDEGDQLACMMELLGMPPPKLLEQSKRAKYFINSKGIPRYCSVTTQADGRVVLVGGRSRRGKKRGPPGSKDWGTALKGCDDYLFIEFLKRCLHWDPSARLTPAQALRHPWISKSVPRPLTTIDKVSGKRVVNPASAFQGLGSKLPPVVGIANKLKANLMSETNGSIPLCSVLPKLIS

[10] = target: Serine/threonine-protein kinase pim-1 (Homo sapiens, UniProt P11309); assay: Percentage PIM1 activity remaining in the presence of 0.01uM inhibitor
[11] = target: T4, Mitogen-activated protein kinase 13 (Homo sapiens) (UniProt O15264); assay: Percentage p38delta activity remaining in the presence of 0.01uM inhibitor
T4 sequence (whole entry): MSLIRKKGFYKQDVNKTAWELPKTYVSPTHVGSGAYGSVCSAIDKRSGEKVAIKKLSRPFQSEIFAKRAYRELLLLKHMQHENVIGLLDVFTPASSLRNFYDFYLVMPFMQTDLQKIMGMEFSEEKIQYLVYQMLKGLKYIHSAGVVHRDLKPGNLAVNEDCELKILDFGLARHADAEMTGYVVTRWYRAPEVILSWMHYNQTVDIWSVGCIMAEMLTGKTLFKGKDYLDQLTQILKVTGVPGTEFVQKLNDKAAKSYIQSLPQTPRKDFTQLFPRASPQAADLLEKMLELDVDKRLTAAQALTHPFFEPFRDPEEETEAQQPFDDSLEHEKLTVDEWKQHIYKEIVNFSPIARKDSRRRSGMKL

[12] = target: MAP kinase-interacting serine/threonine-protein kinase 1 (Homo sapiens) (UniProt Q9BUB5); assay: Percentage MNK1 activity remaining in the presence of 0.01uM inhibitor
[13] = target: Glycogen synthase kinase-3 beta (Homo sapiens, UniProt P49841); assay: Percentage GSK3-beta activity remaining in the presence of 0.01uM inhibitor
[14] = target: Dual specificity mitogen-activated protein kinase kinase 1 (Homo sapiens) (UniProt Q02750); assay: Percentage MKK1 activity remaining in the presence of 0.01uM inhibitor
Dual specificity mitogen-activated protein kinase kinase 1 (Homo sapiens), sequence (Q02750 whole entry): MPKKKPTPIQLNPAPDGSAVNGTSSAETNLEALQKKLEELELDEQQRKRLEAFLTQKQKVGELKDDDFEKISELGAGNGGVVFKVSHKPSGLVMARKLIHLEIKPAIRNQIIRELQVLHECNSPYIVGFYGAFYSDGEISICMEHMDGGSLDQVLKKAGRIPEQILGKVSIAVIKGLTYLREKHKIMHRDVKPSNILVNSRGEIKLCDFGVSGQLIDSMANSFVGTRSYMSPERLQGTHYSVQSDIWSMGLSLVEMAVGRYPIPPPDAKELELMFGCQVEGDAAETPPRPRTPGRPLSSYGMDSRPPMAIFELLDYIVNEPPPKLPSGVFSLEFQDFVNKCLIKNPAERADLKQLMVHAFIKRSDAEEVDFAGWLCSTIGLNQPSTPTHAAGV

Homeodomain-interacting protein kinase 2 (Homo sapiens), sequence (Q9H2X6 whole entry, looked up): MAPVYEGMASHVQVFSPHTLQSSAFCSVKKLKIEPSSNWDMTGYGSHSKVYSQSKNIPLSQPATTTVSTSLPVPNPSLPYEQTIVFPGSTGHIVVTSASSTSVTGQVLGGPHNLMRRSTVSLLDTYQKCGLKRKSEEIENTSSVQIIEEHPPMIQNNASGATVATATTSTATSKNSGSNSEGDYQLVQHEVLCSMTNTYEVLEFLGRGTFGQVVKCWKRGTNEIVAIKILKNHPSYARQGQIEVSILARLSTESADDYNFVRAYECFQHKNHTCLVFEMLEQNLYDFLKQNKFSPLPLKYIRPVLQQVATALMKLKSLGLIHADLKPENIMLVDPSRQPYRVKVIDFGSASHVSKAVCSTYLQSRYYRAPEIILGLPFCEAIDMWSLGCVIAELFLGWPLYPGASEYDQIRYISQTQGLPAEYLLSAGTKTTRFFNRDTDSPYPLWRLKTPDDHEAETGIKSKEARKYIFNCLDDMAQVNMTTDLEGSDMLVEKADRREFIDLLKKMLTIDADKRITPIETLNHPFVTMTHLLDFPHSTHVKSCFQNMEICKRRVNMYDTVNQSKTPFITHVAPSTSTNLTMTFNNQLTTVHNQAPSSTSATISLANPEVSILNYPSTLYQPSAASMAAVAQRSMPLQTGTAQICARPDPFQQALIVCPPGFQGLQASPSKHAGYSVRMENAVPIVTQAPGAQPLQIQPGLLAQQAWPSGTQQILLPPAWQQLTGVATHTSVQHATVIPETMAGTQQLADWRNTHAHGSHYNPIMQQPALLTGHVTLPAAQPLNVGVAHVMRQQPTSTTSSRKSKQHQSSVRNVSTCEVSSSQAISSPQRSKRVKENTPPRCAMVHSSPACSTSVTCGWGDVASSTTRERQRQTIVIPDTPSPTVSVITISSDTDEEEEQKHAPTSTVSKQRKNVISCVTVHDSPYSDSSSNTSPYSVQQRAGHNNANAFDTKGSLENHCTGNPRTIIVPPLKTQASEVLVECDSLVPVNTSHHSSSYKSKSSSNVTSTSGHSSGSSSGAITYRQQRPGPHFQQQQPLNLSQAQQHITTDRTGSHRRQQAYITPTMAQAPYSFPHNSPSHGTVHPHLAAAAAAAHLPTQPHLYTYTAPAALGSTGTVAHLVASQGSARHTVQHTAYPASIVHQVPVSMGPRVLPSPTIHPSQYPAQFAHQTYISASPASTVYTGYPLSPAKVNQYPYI
Mitogen-activated protein kinase 9, sequence (P45984 whole entry, looked up): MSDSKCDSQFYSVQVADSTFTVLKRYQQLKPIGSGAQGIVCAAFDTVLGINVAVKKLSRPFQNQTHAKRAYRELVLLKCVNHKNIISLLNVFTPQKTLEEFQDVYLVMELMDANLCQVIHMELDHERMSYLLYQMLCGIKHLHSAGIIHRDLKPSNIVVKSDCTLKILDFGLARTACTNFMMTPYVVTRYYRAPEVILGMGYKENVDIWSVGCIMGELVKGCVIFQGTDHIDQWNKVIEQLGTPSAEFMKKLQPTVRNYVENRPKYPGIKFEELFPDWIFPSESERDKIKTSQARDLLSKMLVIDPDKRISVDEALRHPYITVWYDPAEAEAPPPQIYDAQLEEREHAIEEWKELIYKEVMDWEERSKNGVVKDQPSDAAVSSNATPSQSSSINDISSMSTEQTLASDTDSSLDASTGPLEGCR
Ribosomal protein S6 kinase alpha-5 (Homo sapiens), sequence (O75582 whole entry, looked up): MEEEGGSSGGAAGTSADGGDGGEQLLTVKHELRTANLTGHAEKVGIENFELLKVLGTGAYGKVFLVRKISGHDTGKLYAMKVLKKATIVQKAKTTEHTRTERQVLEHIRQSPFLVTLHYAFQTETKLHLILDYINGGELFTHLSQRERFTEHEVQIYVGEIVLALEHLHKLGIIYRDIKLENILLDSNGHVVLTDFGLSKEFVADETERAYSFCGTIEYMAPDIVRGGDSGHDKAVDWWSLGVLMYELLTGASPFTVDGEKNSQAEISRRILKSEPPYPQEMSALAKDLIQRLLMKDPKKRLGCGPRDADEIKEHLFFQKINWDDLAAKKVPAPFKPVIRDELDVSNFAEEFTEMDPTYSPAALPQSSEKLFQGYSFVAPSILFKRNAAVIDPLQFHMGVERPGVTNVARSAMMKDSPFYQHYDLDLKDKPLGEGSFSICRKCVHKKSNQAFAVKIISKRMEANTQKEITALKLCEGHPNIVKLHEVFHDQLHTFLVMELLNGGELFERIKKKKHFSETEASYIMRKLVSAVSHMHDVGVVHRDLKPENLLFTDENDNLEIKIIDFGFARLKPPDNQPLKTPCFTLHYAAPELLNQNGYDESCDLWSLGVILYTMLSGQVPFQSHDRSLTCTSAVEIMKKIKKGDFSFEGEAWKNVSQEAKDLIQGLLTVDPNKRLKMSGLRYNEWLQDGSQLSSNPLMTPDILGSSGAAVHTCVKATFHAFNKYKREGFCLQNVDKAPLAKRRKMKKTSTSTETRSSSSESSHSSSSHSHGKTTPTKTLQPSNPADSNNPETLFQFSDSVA
Serine/threonine-protein kinase pim-1, sequence (P11309 whole entry, looked up): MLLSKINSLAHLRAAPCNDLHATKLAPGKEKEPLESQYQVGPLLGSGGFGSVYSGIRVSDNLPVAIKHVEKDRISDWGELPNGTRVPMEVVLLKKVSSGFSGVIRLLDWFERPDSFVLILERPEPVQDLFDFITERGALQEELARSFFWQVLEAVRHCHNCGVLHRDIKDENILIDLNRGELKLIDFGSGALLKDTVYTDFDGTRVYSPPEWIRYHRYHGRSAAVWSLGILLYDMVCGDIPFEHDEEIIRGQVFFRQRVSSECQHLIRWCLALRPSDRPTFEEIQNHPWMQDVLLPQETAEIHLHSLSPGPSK
Glycogen synthase kinase-3 beta, sequence (P49841 whole entry, looked up): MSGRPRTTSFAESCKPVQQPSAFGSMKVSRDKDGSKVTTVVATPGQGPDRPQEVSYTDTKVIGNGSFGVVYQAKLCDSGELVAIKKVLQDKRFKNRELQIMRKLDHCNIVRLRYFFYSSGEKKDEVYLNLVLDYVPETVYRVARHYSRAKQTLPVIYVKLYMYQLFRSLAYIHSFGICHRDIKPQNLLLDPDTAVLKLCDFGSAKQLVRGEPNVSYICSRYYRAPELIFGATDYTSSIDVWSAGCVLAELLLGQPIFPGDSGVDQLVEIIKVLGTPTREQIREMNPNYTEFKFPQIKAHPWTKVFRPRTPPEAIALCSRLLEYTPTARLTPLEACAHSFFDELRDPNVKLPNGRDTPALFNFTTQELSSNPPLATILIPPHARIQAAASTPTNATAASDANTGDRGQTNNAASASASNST
MAP kinase-interacting serine/threonine-protein kinase 1 (Homo sapiens), sequence (Q9BUB5 whole entry, looked up): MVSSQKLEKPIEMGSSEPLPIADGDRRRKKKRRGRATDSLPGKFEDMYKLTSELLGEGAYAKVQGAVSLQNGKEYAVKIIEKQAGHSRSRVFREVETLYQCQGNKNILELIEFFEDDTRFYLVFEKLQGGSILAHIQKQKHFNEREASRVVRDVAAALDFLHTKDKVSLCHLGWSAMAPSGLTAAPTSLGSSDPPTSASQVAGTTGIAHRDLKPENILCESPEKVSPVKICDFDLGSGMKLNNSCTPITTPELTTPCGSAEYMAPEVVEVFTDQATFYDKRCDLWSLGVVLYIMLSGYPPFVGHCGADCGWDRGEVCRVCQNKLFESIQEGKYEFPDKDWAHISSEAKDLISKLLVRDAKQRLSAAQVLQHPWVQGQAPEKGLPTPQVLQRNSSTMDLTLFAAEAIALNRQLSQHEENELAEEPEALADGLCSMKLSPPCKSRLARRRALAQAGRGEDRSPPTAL

Row | SMILES | Activity [1] [%] | Activity [2] [%] | Activity [3] [%] | Activity ([4]; filed as antagonist) [%] | Activity [5] [%] | Activity [6] [%] | Activity [7] [%] | Activity [8] [%] | Activity [9] [%] | Activity [10] [%] | Activity [11] [%] | Activity [12] [%] | Activity [13] [%] | Activity [14] [%] | Activity ([2]; filed as antagonist) [%] | Activity [4] [%] | Activity ([6]; filed as antagonist) [%] | Activity ([9]; filed as antagonist) [%] | Activity ([1]; filed as antagonist) [%] | Activity ([7]; filed as antagonist) [%]
1 | O=C(NCCCNc1nc(Nc2cccc(NC(=O)N3CCCC3)c2)ncc1I)c1cccs1 | 105 | 88 | 93 | 27 | 101 | 94 | 92 | 95 | 85 | 103 | 91 | 80 | 82 | 50 | – | – | – | – | – | –
2 | Cc1n[nH]c2ccc(-c3cncc(OC[C@@H](N)Cc4c[nH]c5ccccc45)c3)cc12 | 73 | – | 81 | – | 94 | – | 88 | 73 | – | 57 | 86 | 120 | 81 | 84 | 19 | 100 | 10 | 41 | – | –
3 | CN[C@@H]1C[C@H]2O[C@@](C)([C@@H]1OC)n1c3ccccc3c3c4c(c5c6ccccc6n2c5c31)C(=O)N[C@H]4O (stereo in doubt) | – | 68 | 107 | – | 92 | 90 | – | 109 | 84 | 52 | 94 | 85 | 77 | 75 | – | 71 | – | – | 6 | 27
